Experimental data taken from US10174065B2, “Antidiabetic enolic glucoside of phenylpyruvic acid” (ZADEC APS, priority 2010, dated 2019).

Key:
3T3-L1 adipocytes = test: Glucose uptake in transformed 3T3-L1 adipocytes (colourometric glucose oxidase method); type: cell-based; conditions: for Glucose conc.: glucose remaining in the media after 3 hour exposure to the cells; for Glucose conc. / Glucose Uptake: media containing 8 mM glucose; for Glucose Uptake: glucose uptake from the media after 3 hour exposure; for % uptake: relative to DMSO vehicle = 100.00, 3 hour glucose uptake; for glucose uptake over a 3 hour culture period: 3T3-L1 adipose cells
Protocol: 3T3-L1 cells were transformed in culture using modified DMEM differentiation media supplemented with insulin, dexametasone and isobutylmethylxanthine and cultured for 3 days. The transformed 3T3-L1 adipocytes were then cultured for a further 5 days in modified DMEM supplemented with 10% FCS before being exposed to insulin, metformin and compounds of the present invention (see Table 1). Glucose uptake over a three (3) hour period was determined after the 5 days of treatment using a colourometric glucose oxidase method (Biovision Inc, USA).
The glucose concentration column represents the glucose concentration remaining in the media following three (3) hour exposure to the cells. The glucose uptake column represents glucose uptake from the media after a 3 hour exposure. SD represents the standard deviation. The percentage increases calculated from the relevant solvent vehicle and the P=values are reflected in the last two columns respectively.

Chang cells = test: 2-deoxy-[3H]-D-glucose uptake assay; type: cell-based; conditions: Chang cell cultures, 3 hrs exposure
Protocol: The glucose uptake of RX-1 and selected analogues after administration of test compounds to Chang cell cultures were determined in an operating protocol for the 2-deoxy-[^3H]-D-glucose. The protocol, which is described in more detail below, has been designed to test for the RX-1 (and RX-1 analogues) mediated glucose uptake. In Table the EC50 values for the uptake for RX-1 and representative analogues is shown.
Stock solutions of the RX-1 analogues supplied in cryo vials (DrugMode) was prepared by diluting the compound with […] sterile tissue culture grade water. This will yield a 5 mM stock solution. If the analogue […] an additional 50 μl methanol will be added (this will be recorded clearly on the log sheet). This will yield a 4 mM stock solution. Stock solutions will be kept on ice at all times and analogues will be stored in 20 μl aliquots at −80 C for subsequent use. Tubes that have been thawed will be clearly marked on the label.
RX-1 (10 μM) Positive Control Solution • To prepare a 10 μM RX-1 solution as positive control. Add 30 μl to 2970 μl modified DMEM media supplemented with 8 mM glucose.
RX-1 Analogue (31.6 μM) Test Solutions • To prepare a 31.6 μM RX-1 analogue test solution. Add 19 μl of the 5 mM to 2981 μl modified DMEM media supplemented with 8 mM glucose. To prepare a 31.6 μM RX-1 analogue test solution from a 4 mM stock solution, add 24 μl to 2976 μl modified DMEM media supplemented with 8 mM glucose.
Cell Seeding in 24-Well Plates • Chang cells are cultured according to procedures described in MRC cell culture SOPs: TC-B2a Thawing of cells and TC-B1a Cell line maintenance—general principles. Make sure cells are in the log phase (i.e. <70% confluence) and less than 20 passages. • Harvest cells using 0.25% (w/v) Trypsin/0.53 mM EDTA solution. • Count cells and resuspend to 30 000 cells/ml (Chang cell seeding density for 24-well plate=30 000 cells/ml) in EMEM (with pyruvate and NEAA, but without L-glutamate (Lonza, USA) containing 10% FBS (Gibco, UK) and pipette 1 ml/well cell suspension to a 24-well plate corresponding to 30 000 cells/well.
• after 3 days of cell growth, aspirate medium • wash cells once with pre-warmed DPBS at 37° C. • add 500 μl of pre-warmed 37° C. DMEM/0.1% BSA (without phenol red, glucose and pyruvate) to serum starve cells to remove residual glucose and FBS • incubate at 37° C. in humidified air and 5% CO2 for 30 min • aspirate DMEM/0.1% BSA (without phenol red, glucose and pyruvate) • Prepare test dilutions as specified in the plate layout (see below) • add 500 μl pre-warmed 37° C. of test dilution per well according to plate layout • incubate at 37° C. in humidified air and 5% CO2 for 3 hrs • remove test medium and wash cells once with DPBS (37° C.) • add 250 μl of test medium containing 0.5 μCi/ml ^3H-2-DOG to each well use (0.5 μl ^3H to 1 ml medium) • Incubate cells at 37° C. in humidified air and 5% CO2 for 15 min • Aspirate medium • To stop the reaction, wash cells twice with ice-cold DPBS • Aspirate DPBS and ensure that wells are as dry as possible • Lyse cells by adding 1 ml of 0.3N NaOH/1% SDS and incubate at 37° C. for at least 45 min • Mix cell lysate thoroughly before subsequent use in LSC and Bradford protein determination

Compound	Glucose conc. (3T3-L1 adipocytes)	Glucose Uptake (3T3-L1 adipocytes)	% uptake (3T3-L1 adipocytes)	EC50 (Chang cells)	glucose uptake over a 3 hour culture period (3T3-L1 adipocytes)
Insulin	2.86 nM/ul	3.13 nM/ul	134.03%		
Cc1cccc(/C=C(\O[C@H]2O[C@@H](CO)[C@@H](O)[C@@H](O)[C@@H]2O)C(=O)O)c1 [RX-18, (Z)-3-(m-Tolyl)-2-(((2R,3S,4R,5S,6S)-3,4,5-trihydroxy-6-(hydroxymethyl)tetrahydro-2H-pyran-2-yl)oxy)acrylic acid]				9.5 µM	
O=C(O)/C(=C/c1ccccc1F)O[C@H]1O[C@@H](CO)[C@H](O)[C@@H](O)[C@@H]1O [RX-4, (Z)-3-(2-Fluorophenyl)-2-(((2R,3S,4R,5R,6S)-3,4,5-trihydroxy-6-(hydroxymethyl)tetrahydro-2H-pyran-2-yl)oxy)acrylic acid]				80.8 µM	
COC(=O)/C(=C/c1ccccc1)O[C@@H]1O[C@H](COC(C)=O)[C@@H](OC(C)=O)[C@H](OC(C)=O)[C@H]1OC(C)=O [RX-1 triacetate, (2R,3R,4S,5R,6S)-2-(Acetoxymethyl)-6-((Z)-3-methoxy-3-oxo-1-phenylprop-1-en-2-yloxy)tetrahydro-2H-pyran-3,4,5-triyl triacetate]	2.92 nM/ul	3.05 nM/ul	130.78%		significantly increased
COC(=O)/C(=C/c1ccccc1)O[C@@H]1O[C@H](CO)[C@@H](O)[C@H](O)[C@H]1O [RX-1 acrylate, (Z)-Methyl 3-phenyl-2-((2S,3R,4S,5S,6R)-3,4,5-trihydroxy-6-(hydroxymethyl)tetra hydro-2H-pyran-2-yloxy)acrylate]	2.82 nM/ul	3.16 nM/ul	135.53%		significantly increased
O=C(O)/C(=C/c1cccc(C(F)(F)F)c1)O[C@H]1O[C@@H](CO)[C@H](O)[C@@H](O)[C@@H]1O [RX-20, (Z)-3-(3-(Trifluoromethyl)phenyl)-2-(((2R,3S,4R,5R,6S)-3,4,5-trihydroxy-6-(hydroxymethyl)tetrahydro-2H-pyran-2-yl)oxy)acrylic acid]				5.7 µM	
O=C(O)/C(=C/c1cccc(C(F)(F)F)c1)O[C@H]1O[C@@H](CO)[C@@H](O)[C@@H](O)[C@@H]1O [RX-10, (Z)-3-(3-(Trifluoromethyl)phenyl)-2-(((2R,3S,4R,5S,6S)-3,4,5-trihydroxy-6-(hydroxymethyl)tetrahydro-2H-pyran-2-yl)oxy)acrylic acid]				105 µM	
CN(C)C(=N)N=C(N)N [Metformin, reference compound]	3.27 nM/ul	2.73 nM/ul	117.14%		
O=C(O)/C(=C/c1ccccc1[N+](=O)[O-])O[C@H]1O[C@@H](CO)[C@H](O)[C@@H](O)[C@@H]1O [RX-2, (Z)-3-(2-Nitrophenyl)-2-(((2R,3S,4R,5R,6S)-3,4,5-trihydroxy-6-(hydroxymethyl)tetrahydro-2H-pyran-2-yl)oxy)acrylic acid]				9.35 µM	
O=C(O)/C(=C/c1cccc(F)c1)O[C@H]1O[C@@H](CO)[C@@H](O)[C@@H](O)[C@@H]1O [RX-5, (Z)-3-(3-Fluorophenyl)-2-(((2R,3S,4R,5S,6S)-3,4,5-trihydroxy-6-(hydroxymethyl)tetrahydro-2H-pyran-2-yl)oxy)acrylic acid]				114 µM	
O=C(O)/C(=C/c1c(F)cccc1Cl)O[C@H]1O[C@@H](CO)[C@@H](O)[C@@H](O)[C@@H]1O [RX-16, (Z)-3-(2-Chloro-6-fluorophenyl)-2-(((2R,3S,4R,5S,6S)-3,4,5-trihydroxy-6-(hydroxymethyl)tetrahydro-2H-pyran-2-yl)oxy)acrylic acid]				6.99 µM	
O=C(O)/C(=C/c1ccccc1Cl)O[C@H]1O[C@@H](CO)[C@@H](O)[C@@H](O)[C@@H]1O [RX-21, (Z)-3-(2-Chlorophenyl)-2-(((2R,3S,4R,5S,6S)-3,4,5-tri hydroxy-6-(hydroxymethyl)tetrahydro-2H-pyran-2-yl)oxy)acrylic acid]				286 µM	
Cc1cccc(/C=C(\O[C@H]2O[C@@H](CO)[C@H](O)[C@@H](O)[C@@H]2O)C(=O)O)c1 [RX-19, (Z)-3-(m-Tolyl)-2-(((2R,3S,4R,5R,6S)-3,4,5-trihydroxy-6-(hydroxymethyl)tetrahydro-2H-pyran-2-yl)oxy)acrylic acid]				181 µM	
